Tests used:
CD8+ T cells = assay: In vitro T-cell priming assay (aAPCs loaded with peptide/MHC and anti-CD28, pMHC multimer readout; HLA-A*02 and HLA-A*24); assay type: cell-based, human; conditions: in vitro immunogenicity of HLA class I peptides; for Wells positive [%]: peptide-specific T cells by pMHC multimer staining
Text: In order to obtain information regarding the immunogenicity of the TUMAPs of the present invention, the inventors performed investigations using an in vitro T-cell priming assay based on repeated stimulations of CD8+ T cells with artificial antigen presenting cells (aAPCs) loaded with peptide/MHC complexes and anti-CD28 antibody.
In order to perform in vitro stimulations by artificial antigen presenting cells loaded with peptide-MHC complex (pMHC) and anti-CD28 antibody, the inventors first isolated CD8+ T cells from fresh HLA-A*02 leukapheresis products via positive selection using CD8 microbeads (Miltenyi Biotec, Bergisch-Gladbach, Germany) of healthy donors obtained from the University clinics Mannheim, Germany, after informed consent.
PBMCs and isolated CD8+ lymphocytes were incubated in T-cell medium (TCM) until use consisting of RPMI-Glutamax (Invitrogen, Karlsruhe, Germany) supplemented with 10% heat inactivated human AB serum (PAN-Biotech, Aidenbach, Germany), 100 U/ml Penicillin/100 μg/ml Streptomycin (Cambrex, Cologne, Germany), 1 mM sodium pyruvate (CC Pro, Oberdorla, Germany), 20 μg/ml Gentamycin (Cambrex). 2.5 ng/ml IL-7 (PromoCell, Heidelberg, Germany) and 10 U/ml IL-2 (Novartis Pharma, Nürnberg, Germany) were also added to the TCM at this step.
Generation of pMHC/anti-CD28 coated beads, T-cell stimulations and readout was performed in a highly defined in vitro system using four different pMHC molecules per stimulation condition and 8 different pMHC molecules per readout condition.
The purified co-stimulatory mouse IgG2a anti human CD28 Ab 9.3 (Jung et al., 1987) was chemically biotinylated using Sulfo-N-hydroxysuccinimidobiotin as recommended by the manufacturer (Perbio, Bonn, Germany). Beads used were 5.6 μm diameter streptavidin coated polystyrene particles (Bangs Laboratories, Illinois, USA).
pMHC used for positive and negative control stimulations were A*0201/MLA-001 (peptide […] (SEQ ID NO. 418) from modified Melan-A/MART-1) and A*0201/DDX5-001 ([…] from DDX5, SEQ ID NO. 419), respectively.
800.000 beads/200 μl were coated in 96-well plates in the presence of 4×12.5 ng different biotin-pMHC, washed and 600 ng biotin anti-CD28 were added subsequently in a volume of 200 μl. Stimulations were initiated in 96-well plates by co-incubating 1×10^6 CD8+ T cells with 2×10^5 washed coated beads in 200 μl TCM supplemented with 5 ng/ml IL-12 (PromoCell) for 3 days at 37° C. Half of the medium was then exchanged by fresh TCM supplemented with 80 U/ml IL-2 and incubating was continued for 4 days at 37° C. This stimulation cycle was performed for a total of three times. For the pMHC multimer readout using 8 different pMHC molecules per condition, a two-dimensional combinatorial coding approach was used as previously described (Andersen et al., 2012) with minor modifications encompassing coupling to 5 different fluorochromes. Finally, multimeric analyses were performed by staining the cells with Live/dead near IR dye (Invitrogen, Karlsruhe, Germany), CD8-FITC antibody clone SK1 (BD, Heidelberg, Germany) and fluorescent pMHC multimers. For analysis, a BD LSRII SORP cytometer equipped with appropriate lasers and filters was used. Peptide specific cells were calculated as percentage of total CD8+ cells. Evaluation of multimeric analysis was done using the FlowJo software (Tree Star, Oregon, USA). In vitro priming of specific multimer+CD8+ lymphocytes was detected by comparing to negative control stimulations.
Exemplary flow cytometry results after TUMAP-specific multimer staining for 2 peptides of the invention are shown in FIGS. 3A-3B together with corresponding negative controls. Results for 5 peptides from the invention are summarized in Table12A. Exemplary flow cytometry results after TUMAP-specific multimer staining for 7 peptides of the invention are shown in FIGS. 4A-4C and FIGS. 5A-5D together with corresponding negative controls.

HLA-A*24 = assay: MHC binding assay, UV-ligand exchange with beta2m ELISA, HLA-A*24; design: species or system human; conditions: binding to HLA-A*24 ranged by peptide exchange yield (UV-ligand exchange, beta2m ELISA)
In short: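 Peptide–MHC complexes made by UV-ligand exchange of a UV-cleavable peptide. Exchange yield measured by ELISA: monomers diluted 100-fold on streptavidin-coated plates, 1 h at 37°C, detected with HRP anti-β2m (2 ug/ml) and TMB, absorbance at 450 nm.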

HLA-A*02 = HLA-A*02 (Homo sapiens, UniProt P04439, D140Y/D185E/D98H/E176V/E277Q/G131W/G231S/I119V/I121R/I166T/I218V/L300P/N151K/N90K/P208A/P217A/Q86G/Q94H/R138H/R169H); assay: MHC binding assay, UV-ligand exchange with beta2m ELISA, HLA-A*02; conditions: binding to HLA-A*02 ranged by peptide exchange yield (UV-ligand exchange, beta2m ELISA)
Text: Candidate peptides for T cell based therapies according to the present invention were further tested for their MHC binding capacity (affinity). The individual peptide-MHC complexes were produced by UV-ligand exchange, where a UV-sensitive peptide is cleaved upon UV-irradiation, and exchanged with the peptide of interest as analyzed. Only peptide candidates that can effectively bind and stabilize the peptide-receptive MHC molecules prevent dissociation of the MHC complexes. To determine the yield of the exchange reaction, an ELISA was performed based on the detection of the light chain (ß2 m) of stabilized MHC complexes. The assay was performed as generally described in Rodenko et al. (Rodenko et al., 2006).
96 well MAXISorp plates (NUNC) were coated over night with 2 ug/ml streptavidin in PBS at room temperature, washed 4× and blocked for 1 h at 37° C. in 2% BSA containing blocking buffer. […] Peptide-MHC monomers of the UV-exchange reaction were diluted 100 fold in blocking buffer. Samples were incubated for 1 h at 37° C., washed four times, incubated with 2 ug/ml HRP conjugated anti-β2 m for 1h at 37° C., washed again and detected with TMB solution that is stopped with […]. Absorption was measured at 450 nm. Candidate peptides that show a high exchange yield (preferably higher than 50%, most preferred higher than 75%) are generally preferred for a generation and production of antibodies or fragments thereof, and/or T cell receptors or fragments thereof, as they show sufficient avidity to the MHC molecules and prevent dissociation of the MHC complexes.

Substance	Wells positive [%] (CD8+ T cells)	Peptide exchange (HLA-A*24)	wells (CD8+ T cells; share of positive wells after stimulation of CD8+ T cells of healthy donors)	Peptide exchange (HLA-A*02)
353 (TYGKIDLGF; listed as Homo sapiens) [compound 353]	+ (<20% = +)	+++ (50%-75% = +++)	–	–
177 (VYFKAGLDVF; listed as Homo sapiens) [compound 177]	+ (<20% = +)	+++ (50%-75% = +++)	–	–
181 (VYPPYLNYL; listed as Homo sapiens) [compound 181]	++++ (>=70% = ++++)	+++ (50%-75% = +++)	–	–
407 (VYGIRLEHF; listed as Homo sapiens) [compound 407]	–	–	+++ (50%-69%= +++)	–
158 (IYEETRGVLKVF; listed as Homo sapiens) [compound 158]	+ (<20% = +)	+++ (50%-75% = +++)	–	–
156 (YYMELTKLLL; listed as Homo sapiens) [compound 156]	+ (<20% = +)	++++ (>=75% = ++++)	–	–
157 (DYIPASGFALF; listed as Homo sapiens) [compound 157]	+ (<20% = +)	+++ (50%-75% = +++)	–	–
105 (IYNETITDLL; listed as Homo sapiens) [compound 105]	+ (<20% = +)	+++ (50%-75% = +++)	–	–
190 (LYSELTETL; listed as Homo sapiens) [compound 190]	++++ (>=70% = ++++)	+++ (50%-75% = +++)	–	–
174 (VYEKNGYIYF; listed as Homo sapiens) [compound 174]	++++ (>=70% = ++++)	+++ (50%-75% = +++)	–	–
111 (VYVQILQKL; listed as Homo sapiens) [compound 111]	+ (<20% = +)	+++ (50%-75% = +++)	–	–
163 (RYLTISNLQF; listed as Homo sapiens) [compound 163]	+ (<20% = +)	++++ (>=75% = ++++)	–	–
142 (VYVDDIYVI; listed as Homo sapiens) [compound 142]	++++ (>=70% = ++++)	+++ (50%-75% = +++)	–	–
359 (NYGVLHVTF; listed as Homo sapiens) [compound 359]	+ (<20% = +)	++++ (>=75% = ++++)	–	–
380 (VYTGIDHHW; listed as Homo sapiens) [compound 380]	+ (<20% = +)	++++ (>=75% = ++++)	–	–
180 (KYLQVVGMF; listed as Homo sapiens) [compound 180]	+ (<20% = +)	+++ (50%-75% = +++)	–	–
96 (YYTQYSQTI; listed as Homo sapiens) [compound 96]	+ (<20% = +)	++++ (>=75% = ++++)	–	–
167 (RYGFYYVEF; listed as Homo sapiens) [compound 167]	++++ (>=70% = ++++)	+++ (50%-75% = +++)	–	–
175 (LYSPVPFTL; listed as Homo sapiens) [compound 175]	+ (<20% = +)	+++ (50%-75% = +++)	–	–
172 (VFIFKGNEF; listed as Homo sapiens) [compound 172]	+ (<20% = +)	++++ (>=75% = ++++)	–	–

Substance	Wells positive [%] (CD8+ T cells)	Peptide exchange (HLA-A*24)	wells (CD8+ T cells; share of positive wells after stimulation of CD8+ T cells of healthy donors)	Peptide exchange (HLA-A*02)
137 (EYLHNCSYF; listed as Homo sapiens) [compound 137]	+ (<20% = +)	++++ (>=75% = ++++)	–	–
344 (EYNSDLHQF; listed as Homo sapiens) [compound 344]	+ (<20% = +)	+++ (50%-75% = +++)	–	–
365 (VFIDHPVHL; listed as Homo sapiens) [compound 365]	+ (<20% = +)	++++ (>=75% = ++++)	–	–
166 (FYTLPFHLI; listed as Homo sapiens) [compound 166]	++++ (>=70% = ++++)	++++ (>=75% = ++++)	–	–
106 (IYNETVRDLL; listed as Homo sapiens) [compound 106]	+ (<20% = +)	+++ (50%-75% = +++)	–	–
77 (IVLSTIASV; listed as Homo sapiens) [compound 77]	–	–	–	+++ (50%-75% = +++)
10 (KTLDVFNIIL; listed as Homo sapiens) [compound 10]	–	–	–	++ (20%-49% = ++)
334 (GRADALRVL; listed as Homo sapiens) [compound 334]	–	–	–	+++ (50%-75% = +++)
327 (SIGDIFLKY; listed as Homo sapiens) [compound 327]	–	–	–	+++ (50%-75% = +++)
60 (FLIDTSASM; listed as Homo sapiens) [compound 60]	–	–	–	++ (20%-49% = ++)
20 (ALDGHLYAI; listed as Homo sapiens) [compound 20]	–	–	–	+++ (50%-75% = +++)
44 (GLLWQIIKV; listed as Homo sapiens) [compound 44]	–	–	–	++ (20%-49% = ++)
40 (SLLALPQDLQA; listed as Homo sapiens) [compound 40]	–	–	–	+++ (50%-75% = +++)
28 (TLYSMDLMKV; listed as Homo sapiens) [compound 28]	–	–	–	+++ (50%-75% = +++)
84 (FLEEEITRV; listed as Homo sapiens) [compound 84]	–	–	–	+++ (50%-75% = +++)
38 (KMQEDLVTL; listed as Homo sapiens) [compound 38]	–	–	–	+++ (50%-75% = +++)
326 (SLLPLVWKI; listed as Homo sapiens) [compound 326]	–	–	–	+++ (50%-75% = +++)
52 (ELLSSIFFL; listed as Homo sapiens) [compound 52]	–	–	–	+++ (50%-75% = +++)
83 (ELLEYLPQL; listed as Homo sapiens) [compound 83]	–	–	–	+++ (50%-75% = +++)
